For nine compounds, pest or weed control results are on record in patent US8754242B2, “Herbicides” (Syngenta Crop Protection LLC, priority 2007, dated 2014).

Assay type in all cases: in vivo
For test [1], the system named is Alopecurus myosuroides (ALOMY). Kind of test: Test Example 1 pre-emergence herbicidal activity. The following applies: Alopecurus myosuroides, 480 h, rate 250 g/ha, evaluated 20 days later, read-out: Pre-emergence activity ALOMY (100=total damage to plant; 0=no damage to plant). The procedure:
(§1) Monocotyledonous and dicotyledonous test plants were sown in standard soil in pots. After cultivation for one day (pre-emergence) or after 10 days cultivation (post-emergence) under controlled conditions in a glasshouse, the plants were sprayed with an aqueous spray solution derived from the formulation of the technical active ingredient in 0.6 ml acetone and 45 ml formulation solution containing 10.6% Emulsogen EL (Registry number 61791-12-6), 42.2% N-methylpyrrolidone, 42.2% dipropylene glycol monomethyl ether (Registry number 34590-94-8) and 0.2% X-77 (Registry number 11097-66-8). The test plants were then grown in a greenhouse under optimum conditions until, 15 days later for post-emergence and 20 days for pre-emergence, the test was evaluated (100=total damage to plant; 0=no damage to plant).
(§2) Alopecurus myosuroides (ALOMY), Avena fatua (AVEFA), Lolium perenne (LOLPE), Setaria faberi (SETFA), Digitaria sanguinalis (DIGSA), Echinochloa crus-galli (ECHCG)

The test system of test [2] is Avena fatua (AVEFA). Kind of test: Test Example 1 pre-emergence herbicidal activity. The following applies: Avena fatua, 480 h, rate 250 g/ha, evaluated 20 days later, read-out: Pre-emergence activity AVEFA (100=total damage to plant; 0=no damage to plant). The procedure:
as §1, §2

The subject of test [3] is Digitaria sanguinalis (DIGSA). Kind of test: Test Example 1 pre-emergence herbicidal activity. As to conditions: Digitaria sanguinalis, 480 h, rate 250 g/ha, evaluated 20 days later, read-out: Pre-emergence activity DIGSA (100=total damage to plant; 0=no damage to plant). The procedure:
as §1, §2

For test [4], the system named is Echinochloa crus-galli (ECHCG). The test can be described thus: Test Example 1 pre-emergence herbicidal activity. As to conditions: Echinochloa crus-galli, 480 h, rate 250 g/ha, evaluated 20 days later, read-out: Pre-emergence activity ECHCG (100=total damage to plant; 0=no damage to plant). As to the method: as §1, §2
Test [5] deals with Lolium perenne (LOLPE). Kind of test: Test Example 1 pre-emergence herbicidal activity. As to conditions: Lolium perenne, 480 h, rate 250 g/ha, evaluated 20 days later, read-out: Pre-emergence activity LOLPE (100=total damage to plant; 0=no damage to plant). As to the method:
as §1, §2

For test [6], the system named is Setaria faberi (SETFA). The test can be described thus: Test Example 1 pre-emergence herbicidal activity. As to conditions: Setaria faberi, 480 h, rate 250 g/ha, evaluated 20 days later, read-out: Pre-emergence activity SETFA (100=total damage to plant; 0=no damage to plant). The procedure: as §1, §2
Test [7] deals with Alopecurus myosuroides (ALOMY). The test can be described thus: Test Example 1 post-emergence herbicidal activity. The following applies: 360 h, rate 125 g/ha, evaluated 15 days later, read-out: Post-emergence activity ALOMY (100=total damage to plant; 0=no damage to plant). The procedure: as §1, §2
Test [8] relates to Avena fatua (AVEFA). Kind of test: Test Example 1 post-emergence herbicidal activity. As to conditions: 360 h, rate 125 g/ha, evaluated 15 days later, read-out: Post-emergence activity AVEFA (100=total damage to plant; 0=no damage to plant). As to the method:
as §1, §2

Test [9] concerns Digitaria sanguinalis (DIGSA). The test can be described thus: Test Example 1 post-emergence herbicidal activity. The following applies: 360 h, rate 125 g/ha, evaluated 15 days later, read-out: Post-emergence activity DIGSA (100=total damage to plant; 0=no damage to plant). As to the method: as §1, §2
The subject of test [10] is Echinochloa crus-galli (ECHCG). The test can be described thus: Test Example 1 post-emergence herbicidal activity. The following applies: 360 h, rate 125 g/ha, evaluated 15 days later, read-out: Post-emergence activity ECHCG (100=total damage to plant; 0=no damage to plant). As to the method: as §1, §2
The subject of test [11] is Lolium perenne (LOLPE). Kind of test: Test Example 1 post-emergence herbicidal activity. As to conditions: 360 h, rate 125 g/ha, evaluated 15 days later, read-out: Post-emergence activity LOLPE (100=total damage to plant; 0=no damage to plant). As to the method:
as §1, §2

Test [12] deals with Setaria faberi (SETFA). The test can be described thus: Test Example 1 post-emergence herbicidal activity. The following applies: 360 h, rate 125 g/ha, evaluated 15 days later, read-out: Post-emergence activity SETFA (100=total damage to plant; 0=no damage to plant). As to the method:
as §1, §2

Regarding `CCc1cc(C)cc(CC)c1C1=C(OC(=O)C(C)(C)C)[C@H]2[C@@H](C1=O)[C@@H]1CC[C@H]2O1` (racemic) [Example P14], the pest or weed control at 250 g/ha in [1], in test [2], in test [3], in test [4], in test [5] and in [6] was 100% each time. In addition, the pest or weed control at 125 g/ha in test [7] is 90%; in test [8] it was 90%; in test [9], 100%; in test [10] it was 100%; in test [11] it was 90%; in [12] it was 100%.

For the compound `CC#CCOC(=O)OC1=C(c2c(CC)cc(C)cc2CC)C(=O)[C@@H]2[C@H]1[C@H]1CC[C@@H]2O1` (racemic) [Example P15], the pest or weed control at 250 g/ha worked out at 80% in test [1]; 90% in [2]; 100% in test [3]; 100% in test [4]; 90% in test [5]; 100% in test [6]. Further, the pest or weed control at 125 g/ha in [7] amounted to 100%; in [8], 90%; in test [9] it was 80%; in [10] it was 100%; in [11], 90%; in [12] it was 80%.

For the compound `CCc1cc(C)cc(CC)c1C1=C(OC(=O)C2CCCCC2)[C@H]2[C@@H](C1=O)[C@@H]1CC[C@H]2O1` (racemic) [Example P17], the pest or weed control at 250 g/ha is 90% in test [1]; 90% in [2]; 100% in test [3]; 100% in [4]; 100% in [5]; 100% in [6]. For the same compound, the pest or weed control at 125 g/ha in [7] was found to be 100%; in test [8] it was 90%; in [9] it was 100%; in test [10], 100%; in [11], 100%; in [12], 100%.

For `CCOC(=O)OC1=C(c2c(CC)cc(C)cc2CC)C(=O)[C@@H]2[C@H]1[C@H]1CC[C@@H]2O1` (racemic) [Example P18, carbonic acid (1RS,2SR,6RS,7SR)-5-oxo-4-(2,6-diethyl-4-methylphenyl)-10-oxatricyclo[5.2.1.0^2,6]-dec-3-en-3-yl ester ethyl ester], the pest or weed control at 250 g/ha in test [1], in test [2], in test [3], in test [4], in test [5] and in [6] was 100% throughout. For the same compound, the pest or weed control at 125 g/ha turned out to be 90% in [7]; 50% in test [8]; 70% in [9]; 100% in test [10]; 80% in test [11]; 70% in test [12].

In the case of `CCCCCCC(=O)OC1=C(c2c(CC)cc(C)cc2CC)C(=O)[C@@H]2[C@H]1[C@H]1CC[C@@H]2O1` (racemic) [Example P20], the pest or weed control at 250 g/ha in test [1] turned out to be 100%; in [2], 80%; in test [3] it was 100%; in [4] it was 100%; in test [5] it was 100%; in test [6], 100%. Also, the pest or weed control at 125 g/ha was found to be 100% in [7]; 100% in test [8]; 80% in test [9]; 100% in [10]; 100% in test [11]; 90% in [12].

`CCc1cc(C)cc(CC)c1C1=C(OC(=O)C2CC2)[C@H]2[C@@H](C1=O)[C@@H]1CC[C@H]2O1` (racemic) [Example P21]: the pest or weed control at 250 g/ha in [1], in test [2], in test [3], in test [4], in test [5] and in test [6] was 100% each time. The pest or weed control at 125 g/ha came to 90% in test [7]; 100% in [8]; 80% in [9]; 100% in [10]; 100% in test [11]; 100% in test [12].

With `CCC(=O)OC1=C(c2c(CC)cc(C)cc2CC)C(=O)[C@@H]2[C@H]1[C@H]1CC[C@@H]2O1` (racemic) [Example P22], the pest or weed control at 250 g/ha in test [1], in test [2], in test [3], in test [4], in [5] and in test [6] was 100% throughout. The pest or weed control at 125 g/ha in test [7], in test [8], in test [9], in test [10], in test [11] and in test [12] was 100% throughout.

Regarding `C#CCOC(=O)OC1=C(c2c(CC)cc(C)cc2CC)C(=O)[C@@H]2[C@H]1[C@H]1CC[C@@H]2O1` (racemic) [Example P25], the pest or weed control at 250 g/ha in test [1], in test [2], in test [3], in test [4], in test [5] and in test [6] was 100% each time. Besides, the pest or weed control at 125 g/ha in test [7] came out at 100%; in test [8] it was 90%; in test [9], 80%; in test [10] it was 100%; in [11] it was 100%; in [12], 80%.

As to `C#CCOC(=O)OC1=C(c2c(C)cc(C)cc2C)C(=O)[C@@H]2[C@H]1[C@@]1(C)CC[C@]2(C)O1` (racemic) [Example P36], the pest or weed control at 250 g/ha in test [1] was 70%; in test [2], 80%; in test [3], 80%; in [4] it was 100%; in [5] it was 100%; in test [6], 80%. The pest or weed control at 125 g/ha in test [7] was 60%; in test [8], 70%; in test [9], 80%; in test [10], 90%; in test [11] it was 60%; in [12], 80%.
